Among the data in article PMC10305218, “Expression of β-Glucosidases from the Yak Rumen in Lactic Acid Bacteria: A Genetic Engineering Approach” (Microorganisms, 2023) are Km values, retold here.

The assay deals with T1, Bgl.
T1 construct: gene bglA; bglA-bglB fusion (usp45-bglA-usp45-bglB, pMG36e) secreted by L. lactis NZ9000; gene 2722 bp; printed about 75 kDa (less than the sum of both); supernatant / TCA-acetone precipitate
Nature of the assay: DNS reducing sugar assay, Michaelis-Menten / Lineweaver-Burk fit. Conditions: 50 °C, pH 7.0; bacterial supernatant. Format: biochemical, Paenibacillus polymyxa. From the text: DNS reducing sugar assay, Michaelis-Menten / Lineweaver-Burk fit on Bgl

A word on the Km: it is the substrate concentration at which the rate is half of its maximum. `OCc1ccccc1O[C@@H]1O[C@H](CO)[C@@H](O)[C@H](O)[C@H]1O` [salicin]: the Km is 34.8 µM.
